Consider 1 compound from PMC8208785, “Therapeutic efficacy of novel memantine nitrate MN‐08 in animal models of Alzheimer’s disease” (Aging Cell, 2021).

In data set [1] the test system is cerebellar granule neurons (CGNs). Kind of data set: MTT cell viability, glutamate-induced excitotoxicity in CGNs. Type of data set: cell-based, rat. The following applies: MN‐08 1–50 µM for 2 h, then 100 μM glutamate 24 h. On the procedure: Excessive glutamate‐induced excitotoxicity might cause dysfunctions of cellular pathways, subsequently resulting in synaptic dysfunctions and neuronal loss. To evaluate the neuroprotective effects of MN‐08 against excitotoxicity, cerebellar granule neurons (CGNs) were treated with MN‐08 at the concentrations from 1 to 50 µM or memantine from 1 to 10 μM for 2 h, and then exposed to 100 μM glutamate for 24 h. […] Similarly, in APP/PS1 mice, MN‐08 prevented neuronal loss in the hippocampus by upregulating the expression ratio of Bcl‐2/Bax and downregulating the expression ratio of cleaved Caspase‐3 to Caspase‐3 (Figure S6).
CGNs were prepared from the 8-day-old Sprague–Dawley rats as described in our previous publication (Li et al., 2005). Briefly, animals were anesthetized and sacrificed, and their cerebella were collected. […]
Neurotoxicity was assessed using the tetrazolium salt 3-(4,5-dimethylthiazol-2-yl)-2,5- diphenyltetrazolium bromide dye (MTT) assay as previous publication (Luo et al., 2010). […] Cell viability was evaluated by observing colorimetric changes using a CLARIOstar plus Microplate Reader (BMG Labtech, Ortenberg, Germany) at a test wavelength of 570 nm with 655 nm as a reference wavelength. Data were expressed as a percentage of control cultures.

Data set [2] concerns APP/PS1 mice. The experiment in a line: behavioral tests (SDA, NOR, MWM), prevention study in APP/PS1 mice. Type of data set: in vivo. The settings on record: 6 mg/kg gastric gavage, ages 2 to 8 months. On the procedure:
APP/PS1 transgenic mice were purchased from Jackson Laboratory and reproduced in the Shenzhen Center for Disease Control and Prevention (Shenzhen, China). Two‐month‐old APP/PS1 mice were divided into four groups: (1) APP/PS1 + Vehicle group; (2) APP/PS1 + MN‐08 (6 mg/kg) group; (3) APP/PS1 + Memantine (Mem, 5 mg/kg) group; (4) APP/PS1 + Donepezil (Done, 1.3 mg/kg, once daily) group; (5) Two‐month‐old C57BL/6J mice as a control group. The APP/PS1 mice were administered drugs twice a day (Done, once daily) by gastric gavage from ages 2 to 8 months for 6 months successively. Control and vehicle groups received equal volumes of saline.
The step-down avoidance (SDA) test was performed as previously described (Zhou et al., 2019). During the training phase, mice were singly placed on a metal floor with electrical stimulation (35 V) for 5 min. After 24 hours, the mouse was positioned on a wooden platform, while the metal floor at the bottom delivered an electrical shock (35 V) for another 5 min. The time for the animal to step down from the wooden platform were recorded as the step-down latency to evaluate retention memory.
Hippocampus-dependent spatial memory was determined by the Morris water maze (MWM) test according to the protocol described in a previous study (Jiao et al., 2015). The MWM test includes a platform training phase and a probe trial phase. An escape platform was placed in a fixed spatial location. During the training phase, each animal was placed at one of four different starting positions and tested four times a day with an interval of approximately 30 min. The animal in the water was immediately removed when it swam to the escape platform within 60 s. […] After the training phase, the probe trial was performed on the sixth day when the platform was removed. The animal was placed in the same starting position in the pool and allowed to move freely for 2 min. The animal swimming track was recorded and analyzed with a digital camera.
The novel object recognition test was performed to assess non-spatial working memory according to previously published protocols (Choi et al., 2011). Firstly, each animal was sequentially placed into a square box (50 × 50 × 50 cm, length × width × height) without any objects for 10 min per day for 2 continuous days to habituate to the environment. Then, two identical objects were placed parallel near one wall of the square box. Animals were placed singly in the box and allowed to explore the objects for 10 min. […] The time each animal took to examine the familiar object and novel object was recorded by digital camera. The discrimination index was calculated according to the following expression: (novel object (s) - familiar object (s))/ (novel object (s) + familiar object (s)). […]

Data set [3] in a line: pharmacokinetic analysis of MN-08 in rats. Type of data set: in vivo. The settings on record: both sexes, rat, plasma, po; for Cmax: read-out: Cmax, peak concentration; for half-life: read-out: T1/2, mean terminal half-life (converted); for Tmax: read-out: Tmax, mean time to peak. On the procedure:
Healthy adult rats were cannulated under anesthesia one day before dosing, then randomly categorized into 3 groups (3 males and 3 females for each group): (1) MN-08 (3 mg/kg) group; (2) MN-08 (12 mg/kg) group; (3) MN-08 (24 mg/kg) group. Following single administration of MN-08 by gastric gavage, plasma samples (approximately 150 μL) were collected at different time points (Pre-dose and 0.25, 0.5, 1, 2, 4, 8, 12, 24 h after dose). The blood samples were placed in heparinized tubes and centrifuged at 3000 rpm for 10 min. The supernatant plasma was stored at -80°C until analysis. The concentration of MN-08 in blood samples was analyzed by the LC-MS/MS method as previously described (Tian et al., 2016).

Setting [4] is: single intragastric dose 3 mg/kg.
Where [5] appears, read: single intragastric dose 12 mg/kg.
The mark [6] stands for this setting: single intragastric dose 24 mg/kg.

Each structure is given as a SMILES string. Read-outs that look alike come from different tables or passages of the source.

As usually defined, the Tmax is the time at which the peak concentration occurs. `CCC12CC3CC(N)(C1)CC(CO[N+](=O)[O-])(C3)C2` (centres unmarked) [MN‐08]: in data set [1], the “protection against glutamate‐induced excitotoxicity (MTT)” value is listed as “concentration‐dependently protect”. In data set [2], the “escape latency in Morris water maze test” value is given as “markedly shortened” and the “number of crossings in Morris water maze test” value is listed as “increased”. Besides, in data set [2] (vs vehicle), the “discrimination index in novel object recognition (NOR) test” value is given as “significantly increased” and the “latency in step‐down avoidance (SDA) test” value is “significantly increased”. Also, in data set [3] (setting [4]), the Cmax came out at 97.5 ng/mL, the half-life was 5.26 h and the Tmax stood at 1.08 h. Moreover, in data set [3] (setting [5]), the Cmax came to 399 ng/mL, the half-life was 6.81 h and the Tmax was 1.83 h. Besides, in data set [3] (setting [6]), the Cmax came to 674 ng/mL, the half-life was 6.82 h and the Tmax stood at 4 h.
